“And” between values parts separate entries of the source, which are not always exact repeats. Equal entries are not always repeated.
System: NCI-H1876 complex spheroid viability
Test: Anticancer human tumor NCI-H1876 cell line growth inhibition [LSD1];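 note: spheroids exposed to compounds for one week before readout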;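 for viability, T/C: 100% = DMSO vehicle-treated spheroids so lower means fewer viable cells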
Conditions: for viability, T/C: stronger effect = lower value
Text: Multicellular complex tumor spheroid response to LSD1 Inhibitor Iadademstat in combination with a variety of drugs and investigational agents in selected tumor cell lines
The current study was undertaken to assess response to LSD1 inhibitors in combination with standard-of-care drugs and investigational agents in solid tumor complex spheroid models as well as in the K-562 leukemia. Complex spheroids include a stromal component modeled by human endothelial cells (HUVEC) and fibroblasts modeled by human mesenchymal stem cells (MSCs). The concentration ranges selected for each drug and investigational agent were based upon clinically achievable concentrations if the clinical Cmax of the agent was known.
Compounds. The drugs and investigational agents used in this study are listed on Table 1. All of the agents used, including staurosporine (NSC755774) and gemcitabine (NSC613327), were obtained from the Developmental Therapeutics Program, NCI. FDA-approved anticancer drugs are available from the NCI at http://dtp.nci.nih.gov/branches/dscb/oncology_drugset_explanation.html. Drugs and investigational agents were >95% pure by proton nuclear magnetic resonance (NMR) and liquid chromatography/mass spectrometry (LC/MS). Stock solutions were prepared at 400x in DMSO, stored at -70 degrees C, and diluted in fresh medium prior to their use. The final concentration of DMSO in cell culture wells never exceeded 0.25% (v/v). The FDA-approved anticancer drug set is available from the Developmental Therapeutics Program at https://dtp.cancer.gov/organization/dscb/obtaining/available_plates.htm. All drugs and investigational agents were tested over a range starting from a high concentration at or near the clinical Cmax and decreasing in half-log increments. If the clinical Cmax for an agent had not been determined, the highest concentration tested was 10 microM.
Cell Lines. The patient-derived cancer cell (PDC) lines: 292921-168-R-J2-PDC, K24384-001-R-PDC, and 521955-158-R2-J5-PDC pancreatic carcinomas, 556581-035-R-J1 ovarian carcinoma, 324938-238-R-J1-PDC, 855422-203-R-J1-PDC and 883617-216-R-J1-PDC urothelial bladder carcinomas, 743489-274-T-PDC renal cell carcinoma, 138582-R-J1 Merkel cell tumor, K60290-347-R-J1 and K57222-313-R-J1-PDC glioblastomas, 653999-131-R-J2-PDC, LG0703-F948-PDC, and 349418-098-R-PDC non-small cell lung carcinomas, 885512-296-R-J2-PDC, 171881-019-R-J1-PDC breast carcinomas and 186277-243-T-J2-PDC and 233499-124-R-J2-PDC colon carcinomas were obtained from the NCI Patient-Derived Models Repository (PDMR, https://pdmr.cancer.gov). The established cell lines NCI/ADR-RES (RRID:CVCL_14520 and OVCAR-5 (RRID:CVCL_1628) ovarian carcinomas, 786-O (RRID:CVCL_1051) and A498 (RRID:CVCL_A498) renal cell carcinoma, NCI-H211 (ATCC, cat. CRL-5824; RRID:CVCL_1529), NCI-H196 (ATCC, cat. CRL-5823, RRID:CVCL_1509), SW 1271 (ATCC, cat. CRL-2177, RRID:CVCL_1716) and NCI-H1876 (ATCC, cat. CRL-5902, RRID:CVCL_1503) small cell lung carcinomas, MDA-MB-231 (RRID:CVCL_0062) and MDA-MB-468 (RRID:CVCL_0419)breast carcinomas (10-12). Pooled donor human umbilical vein endothelial cells (HUVEC, Lonza, cat. CC-2519) and human mesenchymal stem cells (hMSC, Lonza, cat. PT-2501) were purchased from Lonza (Walkersville, MD).
Cell Culture. All cells were maintained in an incubator at 37 degrees C and 5% CO2 with 95% humidity. The PDC lines were cultured according to standard operating procedures established by the NCI PDMR (https://pdmr.cancer.gov). Briefly all PDCs were thawed and cultured in Matrigel-coated flasks prepared with a working solution of 1X Ham's F-12 nutrient mix, without supplementation (Invitrogen, Waltham, MA, cat. 11765054), 100 U/mL penicillin-streptomycin (Invitrogen, cat. 15140122), and 2.5% Matrigel (Corning Inc., Corning, NY, cat. 354248) for the first three passages. […]

IC50 (curve of compound)	Compound	viability, T/C (compound 0.0316 µM)	viability, T/C (compound 0.1 µM)	viability, T/C (compound 0.316 µM)	viability, T/C (compound 1 µM)	viability, T/C (compound 0.00949 µM)	viability, T/C (compound 0.03 µM)	viability, T/C (compound 0.0949 µM)	viability, T/C (compound 0.3 µM)	also measured
165 nM and 150 nM	NS(=O)(=O)OCC1CC(n2ccc3c(NC4CCc5ccccc54)ncnc32)CC1O (configuration not stated)					84.9% and 85.4%	66.2% and 63.6%	56.7% and 51.4%	43.3% and 49.8%	viability, T/C (compound 0.949 µM): 39% and 40.2%; viability, T/C (compound 3 µM): 32.8% and 39%
3.7 nM and 5.87 nM	Nc1ccn(C2OC(CO)C(O)C2(F)F)c(=O)n1 (configuration not stated)					29.2% and 23.5%	23.6% and 9.68%	11.3% and 8.77%	10.5% and 7.09%	viability, T/C (compound 0.000949 µM): 98.6% and 98.7%; viability, T/C (compound 0.003 µM): 53.8% and 86.9%
> 1000 nM	Nc1ncn(C2CC(O)C(CO)O2)c(=O)n1 (configuration not stated)	102% and 103%	97.4% and 97%	86.7% and 106%	86% and 83.6%					viability, T/C (compound 0.00316 µM): 97.2% and 101%; viability, T/C (compound 0.01 µM): 96.9% and 105%
> 300 nM	Nc1ncn(C2CC(O)C(CO)S2)c(=O)n1 (configuration not stated)					100% and 95.5%	81.2% and 81.3%	83.2% and 71.1%	59.5% and 50.1%	viability, T/C (compound 0.000949 µM): 105% and 97.8%; viability, T/C (compound 0.003 µM): 96.8% and 99.5%

The next lines start with the compound.

Compound	IC50 (curve of compound)	viability, T/C (compound 0.0316 µM)	viability, T/C (compound 0.1 µM)	viability, T/C (compound 0.316 µM)	viability, T/C (compound 1 µM)	viability, T/C (compound 0.00949 µM)	viability, T/C (compound 0.03 µM)	viability, T/C (compound 0.0949 µM)	viability, T/C (compound 0.3 µM)	also measured
COc1ccc([C@@H](O)c2cc(-c3ncnc4cc(N5CCOCC5)ccc34)c(F)cc2Cl)nn1	4340 nM and 2150 nM	93.6% and 98%	101% and 97.7%	91.2% and 85.7%	84.5% and 68.1%					viability, T/C (compound 3.16 µM): 59.4% and 41.1%; viability, T/C (compound 10 µM): 25.1% and 10.8%
Cn1ncnc1C1c2n[nH]c(=O)c3cc(F)cc(c23)NC1c1ccc(F)cc1 (configuration not stated)	> 100 nM	94.9% and 93.5%	93.8% and 79.9%							viability, T/C (compound 0.000316 µM): 100% and 104%; viability, T/C (compound 0.001 µM): 95% and 107%; viability, T/C (compound 0.00316 µM): 107% and 100%; viability, T/C (compound 0.01 µM): 107% and 100%
NC1CC1c1ccc(-c2cccc(O)c2)cc1 (configuration not stated)			94%							IC50 (compound alone, run of 02/21/2022): > 10000 nM
NC1CCC(NC2CC2c2ccccc2)CC1 (configuration not stated)				98.5% and 109%	102% [middle of 25 runs]					viability, T/C (compound 3.16 µM): 102% [middle of 25 runs]; viability, T/C (compound 10 µM): 103% [middle of 23 runs]; IC50 (compound alone, run of 02/15/2022): > 10000 nM
Nc1ccccc1NC(=O)c1ccc(CNC(=O)OCc2cccnc2)cc1	176 nM and 77.3 nM					103% and 93.5%	97.7% and 77.7%	79.1% and 44.3%	24.9% and 14%	viability, T/C (compound 0.949 µM): 10.3% and 4.22%; viability, T/C (compound 3 µM): 8.9% and 0.64%
O=C(C=Cc1cccc(S(=O)(=O)Nc2ccccc2)c1)NO	176 nM and 156 nM					101% and 104%	98.9% and 104%	75.1% and 73.1%	27.6% and 19.1%	viability, T/C (compound 0.949 µM): 9.32% and 8.04%; viability, T/C (compound 3 µM): 2.33% and 0.42%
O=C(C=Cn1cnc(-c2cc(C(F)(F)F)cc(C(F)(F)F)c2)n1)NNc1cnccn1	94.9 nM and 79.1 nM	84.4% and 80%	47.8% and 42%	23.1% and 16.6%	16.3% and 9.98%					viability, T/C (compound 0.00316 µM): 99.2% and 92.7%; viability, T/C (compound 0.01 µM): 91% and 89.3%
O=C(c1cc(Cc2n[nH]c(=O)c3ccccc23)ccc1F)N1CCN(C(=O)C2CC2)CC1	5540 nM and 6100 nM	99.1% and 93.9%	96% and 96.3%	91.3% and 97.4%	85.9% and 91.3%					viability, T/C (compound 3.16 µM): 65.4% and 68.3%; viability, T/C (compound 10 µM): 33.4% and 36.2%

From PubChem BioAssay AID1918957 (Molecular Pharmacology Branch, DTP, NCI, 2023)
